EP3623369A1, “NOVEL MORPHOLINYL AMINE COMPOUNDS FOR THE TREATMENT OF AUTOIMMUNE DISEASE” (F. Hoffmann-La Roche AG, priority 2018, dated 2020)

Experiments:
human TLR8 = biological target: T1, human TLR8 (Homo sapiens, UniProt Q9NR97); experiment: HEK293-Blue-hTLR-8 cells assay (SEAP reporter, R848 stimulation); format: cell-based; conditions: HEK293-Blue-hTLR8 cells, R848, 20 hrs; 0.003 is the lowest tested concentration; read-out: HEK/hTLR8 IC50
T1 sequence (Q9NR97 27-1041): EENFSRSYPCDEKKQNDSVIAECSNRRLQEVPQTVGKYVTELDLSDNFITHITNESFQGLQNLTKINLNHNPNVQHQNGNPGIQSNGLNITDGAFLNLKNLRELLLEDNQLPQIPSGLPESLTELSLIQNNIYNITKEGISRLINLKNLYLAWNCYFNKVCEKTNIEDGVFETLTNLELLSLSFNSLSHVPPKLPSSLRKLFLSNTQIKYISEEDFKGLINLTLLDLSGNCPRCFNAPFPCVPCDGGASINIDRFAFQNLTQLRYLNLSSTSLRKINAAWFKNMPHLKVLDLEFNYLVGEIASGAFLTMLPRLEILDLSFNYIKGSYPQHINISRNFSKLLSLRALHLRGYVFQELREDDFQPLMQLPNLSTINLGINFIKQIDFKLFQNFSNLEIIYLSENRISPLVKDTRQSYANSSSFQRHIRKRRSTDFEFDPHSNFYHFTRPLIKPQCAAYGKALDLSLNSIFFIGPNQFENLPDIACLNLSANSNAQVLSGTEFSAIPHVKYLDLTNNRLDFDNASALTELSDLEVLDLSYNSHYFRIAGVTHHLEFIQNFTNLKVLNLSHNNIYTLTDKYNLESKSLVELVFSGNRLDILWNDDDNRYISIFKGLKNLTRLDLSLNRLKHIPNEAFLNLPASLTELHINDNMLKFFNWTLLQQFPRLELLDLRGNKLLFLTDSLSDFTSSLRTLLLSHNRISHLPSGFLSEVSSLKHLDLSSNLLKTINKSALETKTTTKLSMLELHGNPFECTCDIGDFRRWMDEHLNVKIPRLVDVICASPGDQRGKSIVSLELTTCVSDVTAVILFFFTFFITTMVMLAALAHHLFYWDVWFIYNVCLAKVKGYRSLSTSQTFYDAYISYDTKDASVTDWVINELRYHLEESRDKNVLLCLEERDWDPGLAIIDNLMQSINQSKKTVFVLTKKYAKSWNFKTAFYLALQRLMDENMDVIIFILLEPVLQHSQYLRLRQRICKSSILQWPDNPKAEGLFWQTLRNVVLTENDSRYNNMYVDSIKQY
Method in brief: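 Antagonist mode: HEK293-Blue-hTLR8 cells at 250,000–450,000 cells/mL in DMEM with 10% FBS were treated with serially diluted compound (1% DMSO final) plus R848 (10 µL of 60 µM stock) for 20 h at 37 °C. NF-κB/AP-1-driven SEAP in supernatant measured with QUANTI-Blue, 2 h at 37 °C, absorbance 620–655 nm.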

[1] = Human microsome stability assay; format: in vitro ADME; conditions: human liver microsomes, 1 µM test compound, 0.5 mg/mL protein, 37°C, up to 30 minutes
Experimental: Human microsome stability assay
The human microsomal stability assay is used for early assessment of metabolic stability of a test compound in human liver microsomes.
Human liver microsomes (Cat.NO.: 452117, Corning, USA;Cat.NO.:H2610, Xenotech, USA) were preincubated with test compound for 10 minutes at 37°C in 100 mM potassium phosphate buffer, pH 7.4. The reactions were initiated by adding NADPH regenerating system. The final incubation mixtures contained 1 µM test compound, 0.5 mg/mL liver microsomal protein, 1 mM MgCl2, 1 mM NADP, 1 unit/mL isocitric dehydrogenase and 6 mM isocitric acid in 100 mM potassium phosphate buffer, pH 7.4. After incubation times of 0, 3, 6, 9, 15 and 30 minutes at 37°C, 300 µL of cold acetonitrile (including internal standard) was added to 100 µL incubation mixture to terminate the reaction. Following precipitation and centrifugation, the amount of compound remaining in the samples were determined by LC-MS/MS. Controls of no NADPH regenerating system at zero and 30 minutes were also prepared and analyzed. […] Table 3. Human liver microsome stability of the compounds of present invention

IC50 (human TLR8) [nM] | Clearance of Human microsome [1] [mL/min/kg] | Structure (SMILES)
16 | 7.31 | C[C@@H]1CN(c2ccc(C#N)n3nccc23)C[C@H](CNCc2ccc(N3CCNCC3)cc2)O1 [Example 16, 4-[(2R,6S)-2-methyl-6-[[(4-piperazin-1-ylphenyl)methylamino]methyl]morpholin-4-yl]pyrazolo[1,5-a]pyridine-7-carbonitrile]
6 | 6.17 | C[C@@H]1CN(c2ccc(C#N)c3ncccc23)C[C@H](CN2CCc3cc(N4CCNCC4)ccc3C2)O1 [Example 19, 5-[(2R,6S)-2-methyl-6-[(6-piperazin-1-yl-3,4-dihydro-1H-isoquinolin-2-yl)methyl]morpholin-4-yl]quinoline-8-carbonitrile]
5 | 6.15 | C[C@@H]1CN(c2ccc(C#N)c3ncccc23)C[C@H](CN2Cc3ccc(N4CCNCC4)cc3C2)O1 [Example 21, 5-[(2R,6S)-2-methyl-6-[(5-piperazin-1-ylisoindolin-2-yl)methyl]morpholin-4-yl]quinoline-8-carbonitrile]
5 | 6.39 | C[C@@H]1CN(c2ccc3c(c2)CN(C[C@H]2CN(c4ccc(C#N)c5ncccc45)C[C@@H](C)O2)C3)CCN1 [Example 62, 5-[(2R,6S)-2-methyl-6-[[5-[(3R)-3-methylpiperazin-1-yl]isoindolin-2-yl]methyl]morpholin-4-yl] quinoline-8-carbonitrile]
7 | 7.09 | C[C@@H]1CN(c2ccc(C#N)c3ncccc23)C[C@H](CN2Cc3ccc(N4CC5(CCN5)C4)cc3C2)O1 [Example 55, 5-[(2S,6R)-2-[[5-(1,6-diazaspiro[3.3]heptan-6-yl)isoindolin-2-yl]methyl]-6-methyl-morpholin-4-yl]quinoline-8-carbonitrile]

Structure (SMILES) | IC50 (human TLR8) [nM] | Clearance of Human microsome [1] [mL/min/kg]
C[C@@H]1CN(c2ccc(C#N)c3ncccc23)C[C@H](CNCc2ccccc2)O1 [ER-886509, reference compound] | 139 | 15.2
C[C@@H]1CN(c2ccc(C#N)c3ncccc23)C[C@H](CN2Cc3ccccc3C2)O1 [Example R3, 5-[(2S,6R)-2-(isoindolin-2-ylmethyl)-6-methyl-morpholin-4-yl]quinoline-8-carbonitrile, reference compound] | 146 | 15.4
